According to the NIST ThermoML archive (doi:10.1021/je700580g):
± gives the expanded uncertainty stated by the source.

What was measured:
[1] = xn = mol fraction of the nth substance listed; settings: 101 kPa, Liquid
[2] = 101.33 kPa, Liquid
[3] = refractive index (Na D-line) (dimensionless); settings: 101.33 kPa, Liquid, Standard Abbe refractometry

CCCCCCCCO [octan-1-ol] + OCCO
mass density [kg/m3], [1]
Settings | x2 = 0.07997 | x2 = 0.159 | x2 = 0.2159 | x2 = 0.36 | x2 = 0.4825 | x2 = 0.5912 | x2 = 0.6299 | x2 = 0.7437 | x2 = 0.8063 | x2 = 0.8892
293.15 K | 833.01 ± 0.7 | 842 ± 0.68 | 849.21 ± 0.65 | 870.86 ± 0.59 | 894.13 ± 0.53 | 920.03 ± 0.46 | 930.8 ± 0.43 | 968.64 ± 0.33 | 994.57 ± 0.27 | 1036.57 ± 0.34
298.15 K | 829.64 ± 0.71 | 838.63 ± 0.68 | 845.74 ± 0.66 | 867.38 ± 0.6 | 890.64 ± 0.53 | 916.52 ± 0.46 | 927.19 ± 0.44 | 965.11 ± 0.34 | 991.03 ± 0.28 | 1033.02 ± 0.33
303.15 K | 826.15 ± 0.72 | 835.13 ± 0.69 | 842.24 ± 0.67 | 863.92 ± 0.6 | 887.11 ± 0.54 | 912.94 ± 0.47 | 923.7 ± 0.45 | 961.5 ± 0.35 | 987.45 ± 0.29 | 1029.52 ± 0.32
308.15 K | 822.68 ± 0.73 | 831.61 ± 0.7 | 838.76 ± 0.68 | 860.33 ± 0.61 | 883.47 ± 0.55 | 909.33 ± 0.48 | 920.08 ± 0.45 | 957.92 ± 0.36 | 983.8 ± 0.3 | 1025.99 ± 0.32
313.15 K | 819.15 ± 0.73 | 828.07 ± 0.7 | 835.18 ± 0.68 | 856.83 ± 0.62 | 879.91 ± 0.56 | 905.71 ± 0.49 | 916.5 ± 0.46 | 954.32 ± 0.37 | 980.25 ± 0.3 | 1022.37 ± 0.31

OCCO [1,2-ethanediol]
Settings | mass density, 293.15 K [kg/m3] | mass density, 303.15 K [kg/m3] | mass density, 313.15 K [kg/m3] | refractive index, 293.15 K | refractive index, 298.15 K
[2] | 1113.37 ± 0.37 | 1106.4 ± 0.35 | 1099.35 ± 0.34 | – | –
[3] | – | – | – | 1.4323 ± 0.0005 | 1.4309 ± 0.0005

OCCO [1,2-ethanediol] + CCCCO
mass density [kg/m3], [1]
Settings | x1 = 0.08923 | x1 = 0.249 | x1 = 0.3206 | x1 = 0.4019 | x1 = 0.5347 | x1 = 0.6571 | x1 = 0.6974 | x1 = 0.7753 | x1 = 0.81 | x1 = 0.9121
293.15 K | 826.85 ± 0.63 | 861.02 ± 0.55 | 878.11 ± 0.51 | 898.74 ± 0.46 | 936.02 ± 0.38 | 975.06 ± 0.29 | 989.14 ± 0.26 | 1017.69 ± 0.28 | 1030.76 ± 0.31 | 1073.19 ± 0.42
298.15 K | 823.02 ± 0.64 | 857.21 ± 0.56 | 874.25 ± 0.52 | 894.96 ± 0.47 | 932.22 ± 0.39 | 971.34 ± 0.3 | 985.27 ± 0.27 | 1013.86 ± 0.27 | 1027.06 ± 0.3 | 1069.67 ± 0.41
303.15 K | 819.29 ± 0.64 | 853.42 ± 0.57 | 870.64 ± 0.53 | 891.24 ± 0.48 | 928.63 ± 0.4 | 967.77 ± 0.31 | 981.88 ± 0.28 | 1010.51 ± 0.26 | 1023.76 ± 0.3 | 1066.15 ± 0.4
308.15 K | 815.49 ± 0.65 | 849.65 ± 0.57 | 866.86 ± 0.54 | 887.45 ± 0.49 | 924.91 ± 0.41 | 964.18 ± 0.32 | 978.14 ± 0.29 | 1006.95 ± 0.26 | 1020.29 ± 0.29 | 1062.56 ± 0.39
313.15 K | 811.51 ± 0.66 | 845.69 ± 0.58 | 862.94 ± 0.54 | 883.57 ± 0.5 | 921.05 ± 0.41 | 960.49 ± 0.33 | 974.54 ± 0.29 | 1003.28 ± 0.25 | 1016.76 ± 0.28 | 1059.01 ± 0.38

CCCCCCO [hexan-1-ol]
Settings | mass density, 293.15 K [kg/m3] | mass density, 298.15 K [kg/m3] | mass density, 303.15 K [kg/m3] | mass density, 308.15 K [kg/m3] | mass density, 313.15 K [kg/m3] | refractive index, 293.15 K | refractive index, 298.15 K
[2] | 818.74 ± 1.4 | 815.28 ± 1.4 | 811.71 ± 1.4 | 808.13 ± 1.4 | 804.53 ± 1.4 | – | –
[3] | – | – | – | – | – | 1.4183 ± 0.0007 | 1.4161 ± 0.0007

CCCCO [butan-1-ol]
Settings | mass density, 293.15 K [kg/m3] | mass density, 298.15 K [kg/m3] | mass density, 303.15 K [kg/m3] | mass density, 308.15 K [kg/m3] | mass density, 313.15 K [kg/m3] | refractive index, 293.15 K | refractive index, 298.15 K
[2] | 809.6 ± 0.46 | 805.84 ± 0.47 | 802.04 ± 0.47 | 798.2 ± 0.48 | 794.31 ± 0.48 | – | –
[3] | – | – | – | – | – | 1.3997 ± 0.0006 | 1.3978 ± 0.0006

CCCCCCO [hexan-1-ol] + OCCO
mass density [kg/m3], [1]
Settings | x2 = 0.08275 | x2 = 0.1585 | x2 = 0.2374 | x2 = 0.3265 | x2 = 0.4905 | x2 = 0.5445 | x2 = 0.5965 | x2 = 0.6932 | x2 = 0.7757 | x2 = 0.9053
293.15 K | 829.72 ± 1.1 | 840.78 ± 1 | 853.56 ± 0.92 | 869.87 ± 0.84 | 905.8 ± 0.67 | 919.79 ± 0.61 | 934.39 ± 0.55 | 965.41 ± 0.44 | 996.6 ± 0.33 | 1057.08 ± 0.41
298.15 K | 826.21 ± 1.1 | 837.17 ± 1 | 849.99 ± 0.93 | 866.29 ± 0.84 | 902.2 ± 0.67 | 916.19 ± 0.62 | 930.83 ± 0.56 | 961.84 ± 0.45 | 993.11 ± 0.34 | 1053.67 ± 0.4
303.15 K | 822.63 ± 1.1 | 833.58 ± 1 | 846.39 ± 0.93 | 862.69 ± 0.85 | 898.58 ± 0.68 | 912.56 ± 0.62 | 927.24 ± 0.57 | 958.23 ± 0.45 | 989.49 ± 0.35 | 1050.1 ± 0.4
308.15 K | 819.02 ± 1.1 | 829.96 ± 1 | 842.67 ± 0.94 | 859.01 ± 0.85 | 894.88 ± 0.69 | 908.9 ± 0.63 | 923.53 ± 0.57 | 954.54 ± 0.46 | 985.79 ± 0.36 | 1046.52 ± 0.39
313.15 K | 815.44 ± 1.1 | 826.33 ± 1 | 839.04 ± 0.94 | 855.36 ± 0.86 | 891.27 ± 0.69 | 905.23 ± 0.64 | 919.95 ± 0.58 | 950.95 ± 0.47 | 982.18 ± 0.36 | 1042.98 ± 0.38

CCCCCCCCO [octan-1-ol]
Settings | mass density, 293.15 K [kg/m3] | mass density, 298.15 K [kg/m3] | mass density, 303.15 K [kg/m3] | mass density, 308.15 K [kg/m3] | mass density, 313.15 K [kg/m3] | refractive index, 293.15 K | refractive index, 298.15 K
[2] | 825.12 ± 0.74 | 821.75 ± 0.75 | 818.31 ± 0.75 | 814.8 ± 0.76 | 811.41 ± 0.77 | – | –
[3] | – | – | – | – | – | 1.4298 ± 0.0006 | 1.428 ± 0.0006
